# Values of other authors as cited in publication PMC6630532 (ACS Infectious Diseases, 2019).
# System: bacteria
# Conditions: read-out: IC50 (in vitro antimicrobial effect of killing 50% of the bacteria)
substance,measurement,value
H-TGRAKRRMQYNRR-NH2 [UBI29–41],IC50,20 µM
